“And” between values parts separate entries of the source, which are not always exact repeats. Equal values may be shown once. Read-outs that look alike come from different tables or passages of the source. Values belong to the molecule of their own block, whether it stands above or below them.
Legend:
Type in all cases: biochemical
[1] = test system: T1, UGT enzymes of human liver microsomes; experiment: Inhibition of 7-HFC glucuronidation in human liver microsomes; conditions: for % of control metabolism (SD, n = 3), 7-HFC glucuronidation / IC50: 7-HFC 50 μM, 15 min; for % of control metabolism (SD, n = 3), 7-HFC glucuronidation: human liver microsomes 100 μg/ml; for IC50: 1 mM UDPGA
T1 construct: percentage of control metabolism, 7-HFC glucuronidation; percentage of control metabolism, 7-HFC glucuronidation

[2] = test system: UGT enzymes of human liver microsomes; experiment: Inhibition of raloxifene glucuronidation (G1, G2) in human liver microsomes
From the text: Compounds were eluted using a binary solvent gradient system. […] Solvent B was methanol. […] Detection was at 280 nm.

[3] = molecular target: T2, UGT enzymes of human liver microsomes (Homo sapiens, UniProt P16662); experiment: Inhibition of zidovudine glucuronidation in human liver microsomes; conditions: liver lot 062101; inhibitor 500 μM
T2 construct: residual metabolism (percentage of control), zidovudine glucuronidation; other: liver lot 062101; residual metabolism (percentage of control), zidovudine glucuronidation; residual metabolism (percentage of control)
T2 sequence (P16662 1-529): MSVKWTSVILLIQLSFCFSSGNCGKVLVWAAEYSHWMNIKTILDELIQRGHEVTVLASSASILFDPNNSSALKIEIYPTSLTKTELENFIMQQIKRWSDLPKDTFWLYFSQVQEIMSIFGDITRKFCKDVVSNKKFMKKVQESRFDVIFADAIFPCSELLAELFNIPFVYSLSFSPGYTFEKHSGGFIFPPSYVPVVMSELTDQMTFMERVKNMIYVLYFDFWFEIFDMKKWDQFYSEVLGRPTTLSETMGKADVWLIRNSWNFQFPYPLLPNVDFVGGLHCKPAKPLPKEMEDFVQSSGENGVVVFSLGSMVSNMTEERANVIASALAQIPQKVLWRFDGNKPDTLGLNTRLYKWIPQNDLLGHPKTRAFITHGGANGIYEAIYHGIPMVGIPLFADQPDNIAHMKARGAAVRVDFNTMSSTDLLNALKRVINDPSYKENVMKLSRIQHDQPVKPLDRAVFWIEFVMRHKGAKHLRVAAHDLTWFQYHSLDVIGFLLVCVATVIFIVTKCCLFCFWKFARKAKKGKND
Protocol: Compounds were eluted using a binary solvent gradient system where solvent A was dilute phosphoric acid (pH 3) and solvent B was acetonitrile.
Standardized incubations utilized 500 μM zidovudine substrate, 1 mg/ml microsomal protein, 5 mM UDPGA and a 30 min incubation time. […] Int.

[4] = G1, inhibitor 100 μM, raloxifene 50 μM, human liver microsomes 250 μg/ml, 15 min
[5] = G1, inhibitor 500 μM, raloxifene 50 μM, human liver microsomes 250 μg/ml, 15 min
[6] = G2, inhibitor 100 μM, raloxifene 50 μM, human liver microsomes 250 μg/ml, 15 min
[7] = G2, inhibitor 500 μM, raloxifene 50 μM, human liver microsomes 250 μg/ml, 15 min

SMILES: O=C(O)c1cc(O)c(O)c(O)c1 [Gallic acid]
% of control metabolism (SD, n = 3), 7-HFC glucuronidation ([1]; inhibitor 500 μM): 117 (2) %

SMILES: CCCCNC(=O)NS(=O)(=O)c1ccc(C)cc1 [Tolbutamide]
% of control metabolism (SD, n = 3), 7-HFC glucuronidation ([1]; inhibitor 500 μM): 100 (0) %
% of control metabolism (SD, n = 3), raloxifene glucuronide G1 [2]: 98 (7) %
% of control metabolism (SD, n = 3), raloxifene glucuronide G2 [2]: 91 (2) %

SMILES: CC(C)=CCC/C(C)=C\CO [Nerol]
% of control metabolism (SD, n = 3), 7-HFC glucuronidation ([1]; inhibitor 500 μM): 71 (2) %

SMILES: CC(C)[C@@H]1CC[C@@H](C)C[C@H]1O[C@@H]1O[C@H](C(=O)O)[C@@H](O)[C@H](O)[C@H]1O [Menthol glucuronide]
% of control metabolism (SD, n = 3), 7-HFC glucuronidation ([1]; inhibitor 500 μM): 94 (4) %
% of control metabolism (SD, n = 3), raloxifene glucuronide G1 [2]: 91 (2) %
% of control metabolism (SD, n = 3), raloxifene glucuronide G2 [2]: 84 (1) %

SMILES: Cc1cn([C@H]2C[C@H](N=[N+]=[N-])[C@@H](CO[C@@H]3O[C@H](C(=O)O)[C@@H](O)[C@H](O)[C@H]3O)O2)c(=O)[nH]c1=O [AZT glucuronide]
% of control metabolism (SD, n = 3), 7-HFC glucuronidation ([1]; inhibitor 500 μM): 103 (1) %

SMILES: CCCCCCCCCCCCCCCC(=O)O[C@H]1CC[C@@]2(C)C(=CC[C@H]3[C@@H]4CC[C@H]([C@H](C)CCCC(C)C)[C@@]4(C)CC[C@@H]32)C1 [Cholesteryl palmitate]
% of control metabolism (SD, n = 3), 7-HFC glucuronidation ([1]; inhibitor 500 μM): 100 (3) %

SMILES: CCCCCCCCCCCCCCCC(=O)OC[C@H](O)[C@H]1OC(=O)C(O)=C1O [Ascorbyl palmitate]
IC50 [1]: 200 µM
percentage of control metabolism, 7-HFC glucuronidation ([1]; inhibitor 100 μM): 64 (1) %
% of control metabolism (SD, n = 3), 7-HFC glucuronidation ([1]; inhibitor 100 μM): 64 (1) %
percentage of control metabolism, 7-HFC glucuronidation ([1]; inhibitor 200 μM): 51 (1) %
% of control metabolism (SD, n = 3), 7-HFC glucuronidation ([1]; inhibitor 200 μM): 51 (1) %
percentage of control metabolism, 7-HFC glucuronidation ([1]; inhibitor 500 μM): 11 (3) % and 17 (0) %
% of control metabolism (SD, n = 3), 7-HFC glucuronidation ([1]; inhibitor 500 μM): 11 (3), % and 17 (0) %
% of control metabolism (SD, n = 3), raloxifene glucuronide G1 [2, 4]: 57 (2) %
% of control metabolism (SD, n = 3), raloxifene glucuronide G1 [2, 5]: 26 (1) %
% of control metabolism (SD, n = 3), raloxifene glucuronide G2 [2, 6]: 71 (4) %
% of control metabolism (SD, n = 3), raloxifene glucuronide G2 [2, 7]: 36 (5) %

SMILES: CN(C)CCC=C1c2ccccc2CCc2ccccc21 [Amitriptyline, reference compound]
% of control metabolism (SD, n = 3), 7-HFC glucuronidation ([1]; inhibitor 500 μM): 94 (1) %
% of control metabolism (SD, n = 3), raloxifene glucuronide G1 [2, 5]: 138 (6) %
% of control metabolism (SD, n = 3), raloxifene glucuronide G2 [2, 7]: 132 (5) %

SMILES: CCCCCCCCCCCCCCCC(=O)OC/C=C(C)/C=C/C=C(C)/C=C/C1=C(C)CCCC1(C)C [Retinol palmitate]
% of control metabolism (SD, n = 3), 7-HFC glucuronidation ([1]; inhibitor 100 μM): 90 (3) %
% of control metabolism (SD, n = 3), 7-HFC glucuronidation ([1]; inhibitor 200 μM): 82 (1) %
% of control metabolism (SD, n = 3), 7-HFC glucuronidation ([1]; inhibitor 500 μM): 81 (4) %

SMILES: COc1ccc2cc(CCC(C)=O)ccc2c1 [Nabumetone]
% of control metabolism (SD, n = 3), 7-HFC glucuronidation ([1]; inhibitor 500 μM): 81 (3) %
% of control metabolism (SD, n = 3), raloxifene glucuronide G1 [2, 5]: 75 (2) %
% of control metabolism (SD, n = 3), raloxifene glucuronide G2 [2, 7]: 80 (2) %

SMILES: CCCC(=O)OCC(O)C1OC(=O)C(OC(=O)CCC)=C1O (stereo not drawn) [Ascorbyl-2,6-dibutyrate]
% of control metabolism (SD, n = 3), 7-HFC glucuronidation ([1]; inhibitor 500 μM): 92 (1) %

SMILES: CCCCCCCCCCCCOC(=O)c1cc(O)c(O)c(O)c1 [Lauryl gallate]
IC50 [1]: 100 µM
percentage of control metabolism, 7-HFC glucuronidation ([1]; inhibitor 25 μM): 92 (3) %
% of control metabolism (SD, n = 3), 7-HFC glucuronidation ([1]; inhibitor 25 μM): 92 (3) %
percentage of control metabolism, 7-HFC glucuronidation ([1]; inhibitor 50 μM): 76 (2) %
% of control metabolism (SD, n = 3), 7-HFC glucuronidation ([1]; inhibitor 50 μM): 76 (2) %
percentage of control metabolism, 7-HFC glucuronidation ([1]; inhibitor 100 μM): 43 (2) % and 49 (1) %
% of control metabolism (SD, n = 3), 7-HFC glucuronidation ([1]; inhibitor 100 μM): 43 (2) % and 49 (1) %
percentage of control metabolism, 7-HFC glucuronidation ([1]; inhibitor 200 μM): 22 (1) %
% of control metabolism (SD, n = 3), 7-HFC glucuronidation ([1]; inhibitor 200 μM): 22 (1) %
percentage of control metabolism, 7-HFC glucuronidation ([1]; inhibitor 500 μM): 18 (6) %
% of control metabolism (SD, n = 3), 7-HFC glucuronidation ([1]; inhibitor 500 μM): 18 (6) %
% of control metabolism (SD, n = 3), raloxifene glucuronide G1 [2, 4]: 64 (4) %
% of control metabolism (SD, n = 3), raloxifene glucuronide G1 [2, 5]: 7 (0) %
% of control metabolism (SD, n = 3), raloxifene glucuronide G2 [2, 6]: 85 (3) %
% of control metabolism (SD, n = 3), raloxifene glucuronide G2 [2, 7]: 37 (1) %

Next, values leading:

% of control metabolism (SD, n = 3), 7-HFC glucuronidation ([1]; inhibitor 500 μM): 126 (4) %
SMILES: C=CC[C@@H]1/C=C(\C)C[C@H](C)C[C@H](OC)[C@H]2O[C@@](O)(C(=O)C(=O)N3CCCC[C@H]3C(=O)O[C@H](/C(C)=C/[C@@H]3CC[C@@H](O)[C@H](OC)C3)[C@H](C)[C@@H](O)CC1=O)[C@H](C)C[C@@H]2OC [Tacrolimus]

% of control metabolism (SD, n = 3), 7-HFC glucuronidation ([1]; inhibitor 100 μM): 72 (1) %
% of control metabolism (SD, n = 3), 7-HFC glucuronidation ([1]; inhibitor 200 μM): 60 (3) %
% of control metabolism (SD, n = 3), 7-HFC glucuronidation ([1]; inhibitor 500 μM): 48 (1) %
SMILES: CC(=O)OC/C=C(C)/C=C/C=C(C)/C=C/C1=C(C)CCCC1(C)C [Retinyl acetate]

% of control metabolism (SD, n = 3), 7-HFC glucuronidation ([1]; inhibitor 500 μM): 96 (1) %
SMILES: CCCCCCCCCCCCCCCC(=O)Oc1ccc([N+](=O)[O-])cc1 [p-Nitrophenyl palmitate]

residual metabolism (percentage of control), zidovudine glucuronidation [3]: 81 (4) %
SMILES: COc1cc(C=O)ccc1O [Vanillin]

% of control metabolism (SD, n = 3), 7-HFC glucuronidation ([1]; inhibitor 500 μM): 85 (0) %
% of control metabolism (SD, n = 3), raloxifene glucuronide G1 [2, 4]: 76 (6) %
% of control metabolism (SD, n = 3), raloxifene glucuronide G1 [2, 5]: 25 (3) %
% of control metabolism (SD, n = 3), raloxifene glucuronide G2 [2, 6]: 79 (4) %
% of control metabolism (SD, n = 3), raloxifene glucuronide G2 [2, 7]: 44 (2) %
SMILES: CC1=C(CC(=O)O)c2cc(F)ccc2/C1=C\c1ccc([S+](C)[O-])cc1 (stereo not drawn) [Sulindac]
